Patent US6489098B1, “Means and methods for monitoring nucleoside reverse transcriptase inhibitor antiretroviral therapy and guiding therapeutic decisions in the treatment of HIV/AIDS” (ViroLogic, Inc., priority 1998, dated 2002)
Values joined by “and” are separate entries in the source; they are usually repeats but may differ in a detail not shown here. Equal values may be shown once. “Also recorded” adds a separate entry of the source.

Experiments:
[1] = system: HIV-1 RT mutant resistance test vector A62V-T69SSA-L74V-RTV; experiment: Phenotypic susceptibility assay, site directed RTV A62V-T69SSA-L74V; assay type: cell-based; conditions: for Average fold reduction in susceptibility: RTV with 62 + 69 + 74V, 1 replicate
Experimental: (§1) Resistance tests were carried out with resistance test vectors using two host cell types. Resistance test vector viral particles were produced by a first host cell (the resistance test vector host cell) that was prepared by transfecting a packaging host cell with the resistance test vector and the packaging expression vector. The resistance test vector viral particles were then used to infect a second host cell (the target host cell) in which the expression of the indicator gene is measured.
(§2) The resistance test vectors containing a functional luciferase gene cassette were constructed and host cells were transfected with the resistance test vector DNA. The resistant test vectors contained patient-derived reverse transcriptase and protease sequences that were either susceptible or resistant to the antiretroviral agents, such as nucleoside reverse transcriptase inhibitors, non-nucleoside reverse transcriptase inhibitors and protease inhibitors. The resistance test vector viral particles produced by transfecting the resistance test vector DNA into host cells, either in the presence or absence of protease inhibitors, were used to infect target host cells grown either in the absence of NRTI or NNRTI or In the presence of increasing concentrations of the drug. The amount of luciferase activIty produced in infected target host cells in the presence of drug was compared to the amount of luciferase produced in infected target host cells in the absence of drug. Drug resistance was measured as the amount of drug required to inhibit by 50% the luciferase activity detected in the absence of drug (Inhibitory concentration 50%, IC50). The IC50 values were determined by plotting percent drug inhibition vs. log 10 drug concentration.
Host cells were seeded in 10-cm-diameter dishes and were transfected several days after plating with resistance test vector plasmid DNA and the envelope expression vector. Transfections were performed using a calcium-phosphate precipitation procedure. The cell culture media containing the DNA precipitate was replaced with fresh medium, from one to 24 hours, after transfection. Cell culture media containing resistance test vector viral particles was harvested one to four days after transfection and was passed through a […] filter before being stored at −80° C. HIV capsid protein (p24) levels in the harvested cell culture media were determined by an EIA method as described by the manufacturer (SIAC; Frederick, Md.). Before infection, target cells (293 and 293/T) were plated in cell culture media. Control infections were performed using cell culture media from mock transfections (no DNA) or transfections containing the resistance test vector plasmid DNA without the envelope expression plasmid. One to three or more days after infectIon the media was removed and cell lysis buffer (Promega) was added to each well. […] The inhibitory effect of the drug was determined using the following equation:
% luciferase inhibition=1−(RLUluc[drug]÷RLUluc)×100
where RLUluc [drug] is the relative light unit of luciferase activity in infected cells in the presence of drug and RLUluc is the Relative Light Unit of luciferase activity in infected cells in the absence of drug. IC50 values were obtained from the sigmoidal curves that were generated from the data by plotting the percent inhibition of luciferase activity vs. the log 10 drug concentration. […]

[2] = system: patient RTV-621, RTV-285, RTV-690, RTV-770 and RTV-771 (T69SSA, T69SSG, T69SSS); experiment: Phenotypic susceptibility assay, patient isolates with T69SSX mutations/insertions; assay type: cell-based, HIV-1; conditions: for susceptibility compared to wild-type control RTV: patient samples with insertions at 69
Experimental: In these experiments patient-derived segment(s) corresponding to the HIV protease and reverse transcriptase coding regions were either patient-derived segments amplified by the reverse transcription-polymerase chain reaction method (RT-PCR) using viral RNA isolated from viral particles present in the serum of HIV-infected individuals or were mutants of wild type HIV-1 made by site directed mutagenesis of a parental clone of resistance test vector DNA. Isolation of viral RNA was performed using standard procedures (e.g. RNAgents Total RNA Isolation System, Promega, Madison Wis. or RNAzol, Tel-Test, Friendswood, Tex.). The RT-PCR protocol was divided into two steps. A retroviral reverse transcriptase [e.g. Moloney MuLV reverse transcriptase (Roche Molecular Systems, Inc., Branchburg, N.J.), or avian myeloblastosis virus (AMV) reverse transcriptase, (Boehringer Mannheim, Indianapolis, Ind.)] was used to copy viral RNA into cDNA. The cDNA was then amplified using a thermostable DNA polymerase [e.g. Taq (Roche Molecular Systems, Inc., Branchburg, N.J.), Tth (Roche Molecular Systems, Inc., Branchburg, N.J.), PrimeZyme (isolated from Thermus brockianus, Biometra, Gottingen, Germany)] or a combination of thermostable polymerases as described for the performance of “long PCR” (Barnes, W. M., (1994) Proc. Natl. Acad. Sci, USA 91, 2216-2220) [e.g. Expand High Fidelity PCR System (Taq+Pwo), (Boehringer Mannheim. Indianapolis, Ind.) OR GeneAmp XL PCR kit (Tth+Vent), (Roche Molecular Systems, Inc., Branchburg, N.J.)].
Resistance test vectors incorporating the “test” patient-derived segments were constructed as described in PCT International Application No. PCT/US97/01609, filed Jan. 29, 1997 using an amplified DNA product of 1.5 kB prepared by RT-PCR using viral RNA as a template and oligonucleotides PDSApa (1) and PDSAge (2) as primers, followed by digestion with ApaI and AgeI or the isoschizimer PINAI. To ensure that the plasmid DNA corresponding to the resultant resistance test vector comprises a representative sample of the HIV viral quasi-species present in the serum of a given patient, many (>100) independent E. coli transformants obtained in the construction of a given resistance test vector were pooled and used for the preparation of plasmid DNA.
as §1
as §2, with “The IC50 values were determined by plotting percent drug inhibition vs. log 10 drug concentration.” left out

Compound	Average fold reduction in susceptibility [1]	fold reduced susceptibility ([2]; four patient viruses with T69SSX mutations/insertions (FIG. 5))	susceptibility compared to wild-type control RTV [2]	effect on susceptibility (words) ([1]; L74V introduced with A62V+T69SSA)
Cc1cn([C@H]2C=C[C@@H](CO)O2)c(=O)[nH]c1=O [d4T, stavudine]	1.5 fold and 1.50 fold	2-10 fold	decrease in susceptibility to d4T; also recorded: significant reduction in d4T susceptibility; also recorded: decreased susceptibility	
Cc1cn([C@H]2C[C@H](N=[N+]=[N-])[C@@H](CO)O2)c(=O)[nH]c1=O [AZT, zidovudine]			decreased susceptibility	shift of the susceptibility back to wild-type
Nc1ccn([C@H]2CC[C@@H](CO)O2)c(=O)n1 [ddC, zalcitabine]	1.8 fold and 1.80 fold		decreased susceptibility	
O=c1[nH]cnc2c1ncn2[C@H]1CC[C@@H](CO)O1 [ddI, didanosine]			decreased susceptibility	
Nc1nc(NC2CC2)c2ncn([C@H]3C=C[C@@H](CO)C3)c2n1 [ABC, abacavir]			decreased susceptibility	
